Assay results as given in US12618112B2, “Epigenetic moderators of naltrexone efficacy in reducing heavy drinking in individuals diagnosed with alcohol use disorder” (MUSC Foundation for Research Development, priority 2021, dated 2026).

Legend:
[1] = test system: individuals with Alcohol Use Disorder; settings: cited from earlier work
[2] = test system: treatment-seeking AUD patients; assay: 16-week randomized, placebo-controlled naltrexone trial; percent heavy drinking days (PHDD) by promoter/VNTR methylation subgroup; format: in vivo, human; settings: for effect of naltrexone, relative to placebo, on PHDD: 16-week trial
Excerpt: Overview. Detailed methods for the parent RCT, including a CONSORT diagram, are described in Anton et al, 2020 and Schacht et al, 2017. The Medical University of South Carolina Institutional Review Board approved all procedures, and all participants provided informed consent before participation. The study consisted of an initial assessment session, a baseline visit, and 9 follow-up visits over the course of a 16-week treatment period. Briefly, participants seeking AUD treatment were recruited from the community with media advertisements, assessed for inclusion/exclusion criteria, and genotyped for rs1799971. One of the aims of the parent RCT was to test the effect of rs1799971 genotype on naltrexone efficacy, so participants who carried the minor (G) allele were over-selected, such that these individuals ultimately comprised ˜50% of the 146 participants randomized to medication.
Participants. Participants were required to be ages 18-70; report heavy drinking (at least five/four standard drinks per day for men/women) on at least 50% of the days in the 90 days before assessment; and meet DSM-IV (Diagnostic and Statistical Manual of Mental Disorders, revised 4th edition) diagnostic criteria for Alcohol Dependence, as assessed by the Structured Clinical Interview for DSM-IV (First et al, 2002). Participants were also required to self-identify as Caucasian or Asian, secondary to low rs1799971 G-allele frequency among individuals of African descent; we previously reported that analysis of population allele frequencies for 50 SNPs included on the methylation assay used here indicated a high degree of correspondence between self-reported and SNP-identified ancestry. […] Exclusion criteria were: current psychotropic medication use other than antidepressants (for which a stable dose for at least one month was required); current DSM-IV Axis I diagnosis or suicidal/homicidal ideation; history of significant medical illness; liver enzyme (ALT or AST) levels>three times normal; and past-month naltrexone, disulfiram, or acamprosate use. Female participants could not be pregnant or nursing. The Table below lists demographic characteristics for the sample. Medication, randomization, and assessment. Participants were required to maintain abstinence for at least four days before medication randomization, and were then urn randomized (Stout et al, 1994) to receive naltrexone (25 mg for two days, then 50 mg thereafter) or placebo for 16 weeks. Randomization was stratified by rs1799971 genotype, with sex, smoking status (non-smoker vs. smoker, defined as ≥10 cigarettes per day), cocaine use, antidepressant use, and AUD family history balanced across medication groups. […] Participants and investigators were blind to genotype and medication assignment. After randomization, participants returned at weeks 1, 2, 3, 4, 6, 8, 10, 12, and 16 for medical management sessions, during which daily drinking since the last visit was assessed with the calendar-based Timeline Follow-back interview (Sobell and Sobell, 1992). Participants who dropped out after randomization were compensated to return at week 16 to provide missing drinking data. Forty participants ultimately dropped out, at similar rates across medication groups, but full drinking data were available on 89% of participants.
Methylation assay. Genomic DNA was quantitated using a Qubit Fluorometer (Thermo Fisher Scientific, Waltham, MA). An Infinium MethylationEPIC BeadChip (Illumina, San Diego, CA), which assays methylation at 866,895 cytosine residues, 99.7% of which are CpG sites, was used to generate a comprehensive genome-wide profile of DNA methylation. For each subject, 500 ng genomic DNA was bisulfate converted, denatured, and amplified, fragmented, resuspended, and hybridized to the BeadChips (eight samples per chip). […]

[3] = month 3, high SLC6A3 promoter and low OPRM1 promoter methylation

For `O=C1CC[C@@]2(O)[C@H]3Cc4ccc(O)c5c4[C@@]2(CCN3CC2CC2)[C@H]1O5` [naltrexone], the “overall effect of naltrexone on heavy drinking” value ([1]; across all AUD individuals (Maisel et al, 2013)) is listed as “small”, the “effect on heavy drinking” value ([1]; individuals with AUD (Jonas et al., 2014a)) is listed as “reduces heavy drinking” and the “effect size (Cohen's d) for PHDD, naltrexone relative to placebo” value (“effect size … naltrexone relative to placebo” for short) ([2]; across all study months, lower COMT promoter and lower OPRM1 promoter methylation) is listed as 0.85. For the same compound, the “mean difference between naltrexone and placebo in PHDD” value ([2]; across all study months, lower COMT promoter and lower OPRM1 promoter methylation (median split)) was 19.7 % HDD, the “effect size … naltrexone relative to placebo” value ([2]; across all study months, lower SLC6A3 VNTR and lower OPRM1 promoter methylation) was 1.25 and the “mean difference between naltrexone and placebo in PHDD” value ([2]; across all study months, lower SLC6A3 VNTR and lower OPRM1 promoter methylation (median split)) was 28.5 % HDD. For the same compound, the “simple effect of medication on PHDD” value ([2]; any time point, any other combination of SLC6A3 and OPRM1 promoter methylation (except high SLC6A3/low OPRM1)) was “not significant”, the heavy drinking days ([2]; lower methylation of OPRM1 and SLC6A3 or COMT promoters, relative to placebo and to higher methylation) was “significantly fewer heavy drinking days” and the “effect size … naltrexone relative to placebo” value ([2]; month 2, lower SLC6A3 promoter and lower OPRM1 promoter methylation) was 0.61. For the same compound, the “mean difference between naltrexone and placebo in PHDD” value ([2]; month 2, lower SLC6A3 promoter and lower OPRM1 promoter methylation (median split), naltrexone 50 mg) was 16.2 % HDD, the “effect size … naltrexone relative to placebo” value [2, 3] was 0.98 and the “mean difference between naltrexone and placebo in PHDD” value [2, 3] was 25.7 % HDD. The “effect size … naltrexone relative to placebo” value ([2]; month 3, lower SLC6A3 promoter and lower OPRM1 promoter methylation) was 0.62, the “mean difference between naltrexone and placebo in PHDD” value ([2]; month 3, lower SLC6A3 promoter and lower OPRM1 promoter methylation (median split)) was 16.5 % HDD and the “effect of naltrexone, relative to placebo, on PHDD” value ([2]; participants with lower COMT promoter and OPRM1 promoter methylation) was “reduced PHDD more”. For the same compound, the “effect of naltrexone, relative to placebo, on PHDD” value ([2]; participants with lower SLC6A3 VNTR and OPRM1 promoter methylation) was “reduced PHDD more”, the “effect of naltrexone, relative to placebo, on PHDD” value ([2]; participants with lower SLC6A3 promoter and OPRM1 promoter methylation) was “reduced PHDD more” and the “effect sizes for naltrexone, relative to placebo, on heavy drinking” value ([2]; subgroups in which it was most effective) was 0.53-1.04.
